In US4309425A (priority 1980, dated 1982):

Experiments:
[1] = test system: bean aphids (Aphis fabae); assay: bean aphids on nasturtium leaves, spray; assay type: in vivo; details: 24 hours, read-out: 24 Hours Evaluation (% Kill)
Procedure: Stems of nasturtium leaves infested with bean aphids (Aphis fabae) were placed in individual vials of water. The leaves were sprayed to run-off with a series of suspensions of N-[N-[2-chloro-5-(trifluoromethyl)phenyl]-N-[2,4-dinitro-6-(trifluoromethyl)-phenyl]aminothio]-N,4-dimethylbenzenesulfonamide. Suspensions were prepared by dissolving 50 mg of the compound in 10 ml of acetone, adding 1 ml of 1% methocel 15, and diluting to volume with Duponol®:water at 1:3000. Evaluations with respect to % kill 24 hours later are set forth below.

Pythium = Pythium infested soil test, cotton; assay type: in vivo; details: 1.5 kg/ha, 8 days
Text: Pythium infested soil was placed in a 900 cc cup. Compounds of this invention were mixed at a rate of 1.5 kg/ha in a section 2" wide×2" deep×4" long to simulate an in-the-row application. Five cotton seeds were planted in the treated soil. After 8 days, the cotton plants were removed and rated for disease control.

[2] = test system: organo-phosphorous resistant two-spotted spider mites; assay: organo-phosphorous resistant two-spotted spider mites on bean plants, spray, mortality after two days; details: Tetranychus urticae, 48 h, read-out: % Mortality (2 days)
mosquito larvae = mosquito larvae test (failure to become adults); assay type: in vivo; details: 27°-30°, continuous light
Procedure: Twenty-five newly hatched mosquito larvae were placed in 25 ml of distilled water in 4 oz glass jars, and 10 mg diet, consisting of 2 parts liver powder and 1 part brewer's yeast, was added.

two-spotted mites = two-spotted mites on bean plants, spray, mortality after two days; assay type: in vivo; details: Tetranychus urticae, 48 h, read-out: % Mortality (2 days); for mortality at 0.00025 %: spray concentration .00025%; for mortality at 0.0005 %: spray concentration .0005%; for mortality at 0.001 %: spray concentration .001%
Procedure: Mortality was evaluated two days after spraying.
Mortality after two days is set forth below.

Phytophthora infestans [3] = assay: whole plant or invertebrate; assay type: in vivo; details: in Solanum lycopersicum, 96 h, read-out: % control tomato late blight in a residual wash-off test
adult houseflies = adult houseflies spray test; assay type: in vivo, housefly; details: Musca domestica; 1% acetone solutions, 24 hours
Text: Twenty adult houseflies were confined in each of several cylindrical stainless steel cages (7.5 cm D×4 cm high) with wire screens of the ends. These were sprayed with 1% acetone solutions of the indicated compounds.

Venturia inaequalis = assay: apple scab preventive test; assay type: in vivo; details: 10-12 days
Procedure: Compounds of this invention are dissolved in acetone in an amount equal to 6% of the final volume and then suspended at a concentration of 20 ppm in purified water containing 25 ppm of the surfactant Alkanol® XC (sodium alkyl naphthalene sulfonate). This suspension is sprayed to the point of run-off on apple seedlings. The following day, the plants are inoculated with a spore suspension of the fungus Venturia inaequalis and incubated in a growth room for 10-12 days. Disease ratings are then made. […] Phytotoxicity in the form of foliar burn was observed on some of the plants in association with disease control.

Rhizopus = assay: Rhizopus-corn meal mixture overspray test; details: 168 h, 100 ppm, 20° C., 7 days, read-out: % control Rhizopus
Procedure: Compounds of this invention were dissolved in acetone in an amount equal to 6% of final volume and then suspended at a concentration of 100 ppm in purified water containing 500 ppm of the surfactant Alkanol® XC (sodium alkyl naphthalene sulfonate). This solution was oversprayed on a Rhizopus-corn meal mixture in 6 cm aluminum cups. The sprayed plates were placed in a closed plastic bag, stored at 20° C. for 7 days, and then rated.
The untreated cups were completely covered with Rhizopus mycelial growth, but the treated cups were mostly free of growth by this disease-causing organism.

[4] = test system: adult cotton boll weevils (Anthonomus grandis); assay: adult cotton boll weevils spray test; assay type: in vivo; details: 1% acetone solution, 24 hours
Procedure: Five adult cotton boll weevils (Anthonomus grandis) were confined in a 4-oz. wide mouth jar. These were sprayed with a 1% acetone solution of the indicated compounds. Percent mortality after 24 hours is set forth below.

Phytophthora infestans [5] = assay type: in vivo; details: 20 ppm, 4 days
[6] = test system: red-legged grasshoppers (Melanoplus femurrubrum); assay: red-legged grasshoppers spray test; assay type: in vivo; details: 10 ppm in acetone, 48 hours
Procedure: Five red-legged grasshoppers (Melanoplus femurrubrum) were confined in each of several cylindrical stainless steel cages (7.5 cm D×4 cm high) with wire screens at the end. These were sprayed with 10 ppm concentration of the indicated compounds in acetone solution. Percent mortality after 48 hours is recorded below.

[7] = test system: brown dog ticks (Rhipicephalus sanguineus); assay: brown dog ticks spray test; assay type: in vivo; details: 48 h, 12.5 ppm in acetone, forty eight hours
Procedure: Four-ounce wide mouth jars, each containing 10 brown dog ticks (Rhipicephalus sanguineus), were sprayed with 12.5 ppm concentration of the indicated compounds in acetone solution. The ticks were confined with caps which were also sprayed. Forty eight hours later, percent mortality was determined.

Compound	mortality at 0.005 % ([1]; spray concentration 0.005%)	mortality at 0.1 % ([1]; spray concentration 0.1%)	% control Pythium (Pythium)	mortality at 0.0005 % [2]	mortality at 0.001 % [2]	mortality at 0.002 % [2]	EC50 (concentration at which 50% of the initial larvae fail to become adults) (mosquito larvae)	mortality at 0.00025 % (two-spotted mites)	mortality at 0.0005 % (two-spotted mites)	mortality at 0.001 % (two-spotted mites)	pest or weed control at 20 ppm (Phytophthora infestans [3])	mortality at 1 % (adult houseflies)	pest or weed control at 20 ppm (Venturia inaequalis)	inhibition of growth at 100 ppm (Rhizopus)	mortality at 1 % [4]	% control tomato late blight in a preventive test (Phytophthora infestans [5])	mortality at 10 ppm [6]	mortality at 12.5 ppm [7]
Cc1ccc(S(=O)(=O)N(C)SN(c2cc(C(F)(F)F)ccc2Cl)c2c([N+](=O)[O-])cc([N+](=O)[O-])cc2C(F)(F)F)cc1	100%	100%	0%	93%	97%	100%	0.00081 ppm	100%	100%	100%	100%	–	–	–	–	–	–	–
CCCCN(SN(c1cc(C(F)(F)F)ccc1Cl)c1c([N+](=O)[O-])cc([N+](=O)[O-])cc1C(F)(F)F)S(=O)(=O)c1ccccc1C	–	–	–	90%	89%	100%	–	100%	100%	100%	–	100%	100%	90%	100%	–	–	–
CCCCN(SN(c1cc(C(F)(F)F)ccc1Cl)c1c([N+](=O)[O-])cc([N+](=O)[O-])cc1C(F)(F)F)S(=O)(=O)c1ccc(C)cc1	–	–	0%	–	–	–	–	–	–	–	100%	100%	75%	–	100%	100%	100%	100%
